Converted amounts (≈) assume the structure as drawn. Some results are limits rather than exact numbers.

Data on 17 molecules can be found in patent publication US20100216736A2, “2'-CYANOPYRIMIDINE NUCLEOSIDE COMPOUND” (Taiho Pharmaceutical Co., Ltd., priority 2006, published 2010).

For series [1], the system named is Human colon cancer strain KM20C. Kind of series: Antitumor test using tumor-subcutaneously-implanted nude mouse system upon oral administration (equimolar dose). The conditions noted are these: once per day for 14 days, dose equimolar to 18 mg of CNDAC/kg of body weight per day, evaluated on the 29th day after grouping, vs untreated group. The series is classed as in vivo, BALB/cA Jcl-nu mouse. The protocol:
Antitumor Test using Tumor-Subcutaneously-Implanted Nude Mouse System Upon Oral Administration
(§1) Human colon cancer strain KM20C subcutaneously subcultured in a BALB/cA Jcl-nu mouse (product of Clea Japan Inc.) was prepared into fragments of 2 mm×2 mm, and subcutaneously implanted into the backs of 6-week-old BALB/cA Jcl-nu mice. When the average tumor volume exceeded 100 mm^3, the length of each tumor was measured along the major axis and minor axis, and the tumor volume was calculated using the following equation. The mice were then divided into several groups to reduce variations in tumor volume among the groups (5 or 6 mice per group). Vt=½(Vl)×(Vs)^2, (Equation 1)
wherein Vt represents a tumor volume, Vl represents the length along the tumor major axis, and Vs represents the length along the tumor minor axis.
Test compounds were each dissolved or suspended in a 0.5% hydroxypropylmethylcellulose solution prepared with 100 mM citrate buffer (pH 5.0), and, from the day after the day of grouping, orally administered to the mice once per day for 14 days. The dose was set to be equimolar to 18 mg of CNDAC/kg of body weight per day.
On the 29th day after the day of grouping, with respect to the mice in each group, the longest diameter and shortest diameter of each of the subcutaneously implanted tumors were measured. The relative tumor volume (RTV) and the tumor growth inhibition rate (1R) were calculated using the following equation to evaluate antitumor effects. RTV=Vt1/Vt2, (Equation 2)
wherein RTV represents a relative tumor volume, Vt1 represents the tumor volume on the day of evaluation, and Vt2 represents the tumor volume on the day of grouping. IR(%)=[1−(RTVtest)/(RTVcont)]×100, (Equation 3)
wherein IR represents a tumor growth inhibition rate, RTVtest represents the average RTV value in a drug administration group, and RTVcont represents the average RTV value in an untreated group.

A short description of series [2]: Measurement of water solubility. Conditions: for solubility at 75 min: water, 37 °C, thermodynamic from solid.
Description: Measurement of Water Solubility
Test compounds (2 mg or more) were each suspended in water (1 ml), then sonicated for 10 seconds, and incubated at 37° C. for 75 minutes. After filtration through a membrane filter (Millex-LG, 0.2 μm, product of Millipore Corporation), 100 μl of the obtained filtrate was diluted with acetonitrile (100 μl), and analyzed using a high performance liquid chromatograph apparatus.
The solubility of each test compound in water was calculated from the calibration curve.
For series [3], the system named is Human colon cancer strain KM20C. In words: Antitumor test using tumor-subcutaneously-implanted nude mouse system upon oral administration at an equitoxic dose. The series is classed as in vivo, BALB/cA Jcl-nu mouse. The conditions noted are these: once per day for 14 days; for tumor course after completion of administration (regrowth): 20th to 25th day after grouping (about 1 week after completion of administration). The protocol: Antitumor Test of CNDAC, P-CNDAC, and Compounds 1 and 11 of the Present Invention using Tumor-Subcutaneously-Implanted Nude Mouse System Upon Oral Administration at an Equitoxic Dose.
as §1, with “On” for “When”, “15th day after the day of implantation,” for “average tumor volume exceeded 100 mm^3,”, “Vt=1/2(Vl)×(Vs)2” for “Vt=½(Vl)×(Vs)^2,”, “5) wherein Vt represents a tumor volume, Vl represents the length along the tumor major axis, and Vs represents the length along the tumor minor axis.” for “1)”
CNDAC, P-CNDAC, and Compounds 1 and 11 were each dissolved or suspended in a 0.5% hydroxypropylmethylcellulose solution prepared with 100 mM citrate buffer (pH 5.0), and, from the day after the day of grouping, orally administered at an equitoxic dose once per day for 14 days.
With respect to the mice in each group, the length of each of the subcutaneously implanted tumors was measured along the major axis and minor axis twice a week. RTV was calculated as a reference of tumor growth using the following equation to evaluate antitumor effects. RTV=Vt1/Vt2, (Equation 6)
wherein RTV represents a relative tumor volume, Vt1 represents the tumor volume on the day of evaluation, and Vt2 represents the tumor volume on the day of grouping.

Series [4] is described as follows: Pharmacokinetic testing in SD (IGS) rats, oral administration, CNDAC serum concentration. The series is classed as in vivo. The conditions noted are these: 10 mg/kg of body weight, rat, dose equivalent to 10 mg of CNDAC/kg of body weight, 0 to 8 hours after administration. Here is the method: Pharmacokinetic Testing in SD (IGS) Rats
Test compounds were orally administered to SD (IGS) rats (product of Charles River Laboratories Japan, Inc.; 8 weeks old), and, based on the CNDAC serum concentration in the rats, orally administered absorbability and in vivo activation into CNDAC were evaluated.
In the morning of the test day, predetermined amounts of test compounds were each dissolved or suspended in a 0.5% hydroxypropylmethylcellulose solution prepared with 100 mM citrate buffer (pH 4.5), and orally administered. CNDAC was administered at a dose of 10 mg/kg of body weight, and other test compounds were administered at a dose equivalent to 10 mg of CNDAC/kg of body weight. Blood was collected from the jugular vein 0.5, 1, 2, 4, 6, and 8 hours after administration of the test compounds (two or three rats per point) to obtain serum. The serum concentrations of the compounds and CNDAC were measured using LC/MS, and the area under the curve (AUC) of the CNDAC serum concentration from 0 to 8 hours after administration were calculated.

In general, solubility refers to the concentration that dissolves in the medium under given conditions. A high value points to much dissolved substance. As to `CCCCCC/C=C\COC(=O)Nc1ccn([C@@H]2O[C@H](CO)[C@@H](O)[C@@H]2C#N)c(=O)n1` [Compound 7, 4-N—[(Z)-2-Nonen-1-yloxycarbonyl]-2′-cyano-2′-deoxy-1-β-D-arabinofuranosylcytosine], the “IR (%) tumor growth inhibition rate” value in series [1] turned out to be 96%. Besides, the solubility at 75 min in series [2] is greater than 50 µg/mL.

On to `CCCCCCCCCCCCCCCC(=O)Nc1ccn([C@@H]2O[C@H](CO)[C@@H](O)[C@@H]2C#N)c(=O)n1` [P-CNDAC, 4-N-palmitoyl-2′-cyano-2′-deoxy-1-β-D-arabinofuranosylcytosine, reference compound], for which, in series [3], the tumor disappearance entry is reported as “tumors did not disappear” and the “tumor course after completion of administration (regrowth)” value (“tumor course after completion” for short) is reported as “tumor regrowth was observed”. Further, the “water solubility, in words” value in series [2] (in water, 37° C.) is “low water solubility”. The “Water Solubility” value in series [2] (in water, 37° C., 75 minutes, filtrate analysed by HPLC) is less than 0.5 µg/mL.

One may read the AUC(0-t) as exposure summed from dosing to a finite time, without extrapolation to infinity. In the case of `N#C[C@H]1[C@H](O)[C@@H](CO)O[C@H]1n1ccc(N)nc1=O` [CNDAC, 2′-cyano-2′-deoxy-1-β-D-arabinofuranosylcytosine, reference compound], the “IR (%) tumor growth inhibition rate” value in series [1] is reported as 54%. In addition, the exposure AUC(0-t) in series [4] turned out to be 493 ng·h/mL. In series [3], the tumor disappearance result is given as “tumors did not disappear” and the “tumor course after completion” value is recorded as “tumor regrowth was observed”. The “water solubility, in words” value in series [2] (in water, 37° C.) was “extremely high water solubility”. Moreover, in series [2], the solubility at 75 min is greater than 1000 µg/mL.

Broadly, the melting point is the temperature, or range, at which the solid turns liquid. In the case of `CC/C=C\CCCCCOC(=O)Nc1ccn([C@@H]2O[C@H](CO)[C@@H](O)[C@@H]2C#N)c(=O)n1` [Compound 3, 4-N—[(Z)-6-Nonen-1-yloxycarbonyl]-2′-cyano-2′-deoxy-1-β-D-arabinofuranosylcytosine], the melting point amounted to 72.4 °C.

Turning to `CCCCCCCOC(=O)OC[C@H]1O[C@@H](n2ccc(N)nc2=O)[C@@H](C#N)[C@@H]1O` [Compound 9, 5′-O-(n-Heptyloxycarbonyl)-2′-cyano-2′-deoxy-1-β-D-arabinofuranosylcytosine], the melting point is 152.2 °C. Moreover, the “IR (%) tumor growth inhibition rate” value in series [1] is recorded as 78%. In series [2], this molecule had a solubility at 75 min greater than 50 µg/mL.

The molecule `CCCCCCCCOC(=O)Nc1ccn([C@@H]2O[C@H](CO)[C@@H](O)[C@@H]2C#N)c(=O)n1` [Compound 16, 4-N-(n-Octyloxycarbonyl)-2′-cyano-2′-deoxy-1-β-D-arabinofuranosylcytosine] yielded a melting point of 67.5 °C. In series [1], the “IR (%) tumor growth inhibition rate” value stood at 38%.

In the case of `CC(C)CC(CC(C)C)OC(=O)OC[C@H]1O[C@@H](n2ccc(N)nc2=O)[C@@H](C#N)[C@@H]1O` [Compound 14, 5′-O-(2,6-Dimethylheptan-4-yloxycarbonyl)-2′-cyano-2′-deoxy-1-β-D-arabinofuranosylcytosine], the melting point is 182.7 °C (dec.).

For `CCCCC(CCCC)OC(=O)Nc1ccn([C@@H]2O[C@H](CO)[C@@H](O)[C@@H]2C#N)c(=O)n1` [Compound 2, 4-N-(Nonan-5-yloxycarbonyl)-2′-cyano-2′-deoxy-1-β-D-arabinofuranosylcytosine], the melting point stood at 83.6 °C.

`CCCCCCCCCOC(=O)Nc1ccn([C@@H]2O[C@H](CO)[C@@H](O)[C@@H]2C#N)c(=O)n1` [Compound 1, 4-N-(n-Nonyloxycarbonyl)-2′-cyano-2′-deoxy-1-β-D-arabinofuranosylcytosine]: the melting point came to 66 °C. For the same molecule, the “IR (%) tumor growth inhibition rate” value in series [1] is reported as 96%. For the same molecule, in series [3], the “reduction of tumor volume (RTV), FIG. 1” value is “greater reduction of tumor volume than CNDAC and P-CNDAC”; the tumor disappearance entry is on record as “tumor disappearance was achieved in one of the five cases”; the “tumor course after completion” value was “the tumor size continued to reduce even after completion of administration”. This molecule also returned a solubility at 75 min in series [2] of 21.1 µg/mL (≈ 49.9 µM).

Consider `CCCCC/C=C\CCOC(=O)Nc1ccn([C@@H]2O[C@H](CO)[C@H](O)[C@@H]2C#N)c(=O)n1` [Compound 4, 4-N—[(Z)-3-Nonen-1-yloxycarbonyl]-2′-cyano-2′-deoxy-1-β-D-arabinofuranosylcytosine], for which the “IR (%) tumor growth inhibition rate” value in series [1] is 93%.

With `CCCCCCOC(=O)OC[C@H]1O[C@@H](n2ccc(N)nc2=O)[C@@H](C#N)[C@@H]1O` [Compound 8, 5′-O-(n-Hexyloxycarbonyl)-2′-cyano-2′-deoxy-1-β-D-arabinofuranosylcytosine], the melting point was determined as 154.1 °C. In series [1], the “IR (%) tumor growth inhibition rate” value came out at 76%. This molecule also gave a solubility at 75 min in series [2] greater than 50 µg/mL.

For the molecule `C=CCCCCCCCOC(=O)Nc1ccn([C@@H]2O[C@H](CO)[C@@H](O)[C@@H]2C#N)c(=O)n1` [Compound 6, 4-N-(8-Nonen-1-yloxycarbonyl)-2′-cyano-2′-deoxy-1-β-D-arabinofuranosylcytosine], the melting point came to 72.7 °C.

On to `CCCCCCCCCCOC(=O)Nc1ccn([C@@H]2O[C@H](CO)[C@@H](O)[C@@H]2C#N)c(=O)n1` [Compound 15, 4-N-(n-Decyloxycarbonyl)-2′-cyano-2′-deoxy-1-β-D-arabinofuranosylcytosine], for which the melting point worked out at 97 °C. Besides, in series [1], the “IR (%) tumor growth inhibition rate” value came out at 22%.

`N#C[C@H]1[C@H](O)[C@@H](COC(=O)Oc2ccc(Cl)cc2)O[C@H]1n1ccc(N)nc1=O` [Compound 17, 5′-O-(4-Chlorophenyloxycarbonyl)-2′-cyano-2′-deoxy-1-β-D-arabinofuranosylcytosine]: the melting point stood at 113 °C. Further, the “IR (%) tumor growth inhibition rate” value in series [1] is given as 58%.

The molecule `CCCCC(CCCC)OC(=O)OC[C@H]1O[C@@H](n2ccc(N)nc2=O)[C@@H](C#N)[C@@H]1O` [Compound 11, 5′-O-(Nonan-5-yloxycarbonyl)-2′-cyano-2′-deoxy-1-β-D-arabinofuranosylcytosine] showed a melting point of 167.2 °C. Besides, the “IR (%) tumor growth inhibition rate” value in series [1] turned out to be 93%. Moreover, in series [3], the “reduction of tumor volume (RTV), FIG. 1” value is “greater reduction of tumor volume than CNDAC and P-CNDAC”; the “tumor course after completion” value is on record as “the tumor size continued to reduce even after completion of administration”. Also, in series [2], the concentration in solution (solubility at 75 min) came to 49.5 µg/mL (≈ 117 µM).

In turn, `CCCCCCCCOC(=O)OC[C@H]1O[C@@H](n2ccc(N)nc2=O)[C@@H](C#N)[C@@H]1O` [Compound 10, 5′-O-(n-Octyloxycarbonyl)-2′-cyano-2′-deoxy-1-β-D-arabinofuranosylcytosine] gave a melting point of 143.1 °C. The “IR (%) tumor growth inhibition rate” value in series [1] worked out at 89%. In addition, in series [2], the solubility at 75 min was greater than 50 µg/mL.

The molecule `CCCCCC/C=C/COC(=O)Nc1ccn([C@@H]2O[C@H](CO)[C@@H](O)[C@@H]2C#N)c(=O)n1` [Compound 5, 4-N—[(E)-2-Nonen-1-yloxycarbonyl]-2′-cyano-2′-deoxy-1-β-D-arabinofuranosylcytosine] had a melting point of 71.1 °C.
